# Results taken from patent US10709699B2, “Pyridone derivative pharmaceutical composition and preparation method thereof” (Jiangsu Hengrui Medicine Co., Ltd., priority 2016, dated 2020).
# What was measured:
# [1] = Particle size of the raw material by Malvern laser particle size analyzer (Mastersizer 2000); type: physicochemical; settings: for Particle size d (0.5) of the raw material / Particle size d (0.9) of the raw material: in µm (unit assumed)
# Procedure: 2-((2-Fluoro-4-iodophenyl)amino)-1-methyl-4-((6-methylpyridin-3-yl)oxy)-6-oxo-1,6-dihydropyridine-3-carboxamide p-toluenesulfonate (hereinafter referred to as compound A) was screened by an 80 mesh sieve, and micronized by a Mcone jet mill (micronizing pressure: 4 bar, sample introduction pressure: 6 bar), respectively. The particle size was measured directly with a Malvern laser particle size analyzer (Mastersizer 2000).
# Solubility = type: physicochemical; settings: compound A and its salts
# [2] = raw material micronized by a jet mill (4 bar)
# [3] = raw material screened by an 80 mesh sieve
smiles,measurement,setting,value
"Cc1ccc(Oc2cc(=O)n(C)c(Nc3ccc(I)cc3F)c2C(N)=O)cn1.Cc1ccc(S(=O)(=O)O)cc1 [compound A, 2-((2-fluoro-4-iodophenyl)amino)-1-methyl-4-((6-methylpyridin-3-yl)oxy)-6-oxo-1,6-di hydropyridine-3-carboxamide p-toluenesulfonate]",particle size of the raw material,[1]; raw material micronized by a jet mill,less than 10 μm
same,Particle size d (0.5) of the raw material,[1]; [2],2.587
same,Particle size d (0.9) of the raw material,[1]; [2],5.494
same,Particle size d (0.5) of the raw material,[1]; [3],4.940
same,Particle size d (0.9) of the raw material,[1]; [3],14.148
same,solubility,Solubility,low
